# Tests used:
# Trypanosoma cruzi [1] = assay: In vivo trial on Trypanosoma cruzi in the chronic phase, Balb/c mice: serological evaluation (ELISA)
# Source text: (§1) The Balb/c-type mice are bred in the animal house of the Health Sciences Research Institute (IICS, Asuncion, Paraguay) and are 6 to 8 weeks old at the time of the experimental protocols. For this experimental protocol, the CL strain (Brener clone) of T. cruzi is used in the circulating form (trypomastigotes), and the strain is maintained in routine culture on an animal model by passage every 14 days. The animals are infected intraperitoneally with 1000 parasites. Under these experimental conditions, the parasites develop slowly; this strain produces a parasite peak 21 to 28 days after infection. The majority of the mice survive (70-80%) with slight deterioration of their general physical condition and with absent or subpatent parasitemia. Each week, the number of parasites is verified by taking a blood sample from the tail of the mouse.
# (§2) For this long-duration experiment, the treatments begin 120 days after parasitic infection, when the parasitemia is subpatent in all the mice. The mice are then divided up into groups randomly. The treatments with benznidazole, the reference medicinal product, are administered at a concentration of 50 mg/kg or 200 mM/kg per day for 20 days, orally. Canthin-6-one is administered either orally or subcutaneously at a concentration of 5 mg/kg or 20 mM/kg per day for 20 days. A total dichloromethane extract of Zanthoxylum chiloperone var. angustifolium trunk bark is administered orally or subcutaneously at a concentration of 50 mg/kg per day for 20 days. For administration, the active principles are dissolved in 50 μl of a phosphate buffered saline (PBS) solution. The untreated and infected mice receive 50 μl of PBS.
# • Weekly counting of the number of parasites circulating in the peripheral blood throughout the experiment, i.e. […] The serological evaluation is carried out using a Chagas ELISA assay (enzyme linked immunoassay) kit, IISC, Asuncion. The optical densities are measured with an ELISA plate reader (Titerek, Unistan, I). Statistical Studies:
# (§3) The mean and the standard deviations of each group are calculated, and the differences between the groups are determined by means of the Student's test and the Kruskal-Wallis non-parametric analysis of variance test. The comparisons are carried out between the untreated group and the treated groups, P<0.05.
# Trypanosoma cruzi [2] = assay: In vivo trial on Trypanosoma cruzi in the acute phase, Balb/c mice: serological evaluation (anti-T. cruzi ELISA); settings: for 1st serology (anti-T. cruzi ELISA, optical density): 40 days post-infection, 15 days post-treatment; for 2nd serology (anti-T. cruzi ELISA, optical density): 68 days post-infection, 45 days post-treatment
# Source text: (§4) Animals and parasites: The Balb/c-type mice are bred in the animal house of the Health Sciences Research Institute (IICS, Asuncion, Paraguay) and are 6 to 8 weeks old at the time of the experimental protocols.
# (§5) For these trials, the CL strain (Brener clone) of T. cruzi is used in the circulating form of the parasite (trypomastigotes). The animals are infected intraperitoneally with 5000 parasites; this strain produces its parasite peak 21 to 25 days after infection. Each week, the number of parasites is verified by means of a blood sample taken from the tail of the mouse.
# (§6) Infection and treatment: The treatments with benznidazole, the reference medicinal product, and canthin-6-one begin 11 days after parasitic infection, at a rate of 50 mg/kg or 200 mM/kg for benznidazole and at the concentration of 5 mg/kg or 20 mM/kg for canthin-6-one. The duration of the treatments is fixed at two weeks and the chosen route of administration is oral for benznidazole and canthin-6-one; furthermore, a group of mice is treated with canthin-6-one administered subcutaneously. The untreated and infected mice are given 100 μl of a phosphate buffered saline solution.
# (§7) • weekly counting of the number of parasites circulating in the peripheral blood throughout the experiment, i.e. 10 weeks; • observation of mortality; • two serological evaluations: 40 days post-infection, i.e. 15 days after treatment has been stopped, and 68 days post-infection, i.e. 45 days post-treatment. The serological evaluation is carried out by means of a Chagas ELISA assay (enzyme linked immunoassay) kit, IISC, Asuncion. The optical densities are measured with an ELISA plate reader (Titerek, Unistan, I).
# (§8) Statistical studies: The mean and the standard deviations of each group are calculated, the differences between the groups are determined by means of the Student's test and the Kruskal-Wallis non-parametric analysis of variance test. The comparisons are carried out between the nontreated group and the treated groups, P<0.05.
# Trypanosoma cruzi [3] = assay: In vivo trial on Trypanosoma cruzi in the chronic phase, Balb/c mice: parasitemia and mortality
# Source text: as §1
# as §2, with “For this long-duration experiment, the treatments begin 120 days after parasitic infection, when the parasitemia is subpatent in all the mice.” left out
# • Weekly counting of the number of parasites circulating in the peripheral blood throughout the experiment, i.e. 30 weeks. • Observation of mortality. • Three serological evaluations, 45 days before the beginning of treatments, 10 days after treatment has stopped and 75 days post-treatment. The serological evaluation is carried out using a Chagas ELISA assay (enzyme linked immunoassay) kit, IISC, Asuncion. The optical densities are measured with an ELISA plate reader (Titerek, Unistan, I). Statistical Studies:
# as §3
# Trypanosoma cruzi [4] = assay: In vivo trial on Trypanosoma cruzi in the acute phase, Balb/c mice: parasitological evaluation (parasites in peripheral blood)
# Source text: as §4, §5, §6, §7, §8
compound,measurement,setting,value
"O=C(Cn1ccnc1[N+](=O)[O-])NCc1ccccc1 [Benznidazole, benznidazole, reference compound]",ELISA (optical density ± standard deviation),"Trypanosoma cruzi [1]; 10 d post-treatment, 50 mg/kg/d orally",1.712 ± 0.473
same,ELISA (optical density ± standard deviation),"Trypanosoma cruzi [1]; 43 days before treatment (baseline), 50 mg/kg/d orally",2.072 ± 0.220
same,ELISA (optical density ± standard deviation),"Trypanosoma cruzi [1]; 75 d post-treatment, 50 mg/kg/d orally",1.979 ± 0.350
same,"1st serology (anti-T. cruzi ELISA, optical density)",Trypanosoma cruzi [2]; 50 mg oral,0.1692 ± 0.1179
same,"2nd serology (anti-T. cruzi ELISA, optical density)",Trypanosoma cruzi [2]; 50 mg oral,0.7934 ± 0.8607
same,Negative parasitemia/number of surviving mice,"Trypanosoma cruzi [3]; 0 days post-treatment, 50 mg/kg/d orally for 20 days",5/5
same,Negative parasitemia/number of surviving mice,"Trypanosoma cruzi [3]; 10 d post-treatment, 50 mg/kg/d orally for 20 days",2/5
same,Negative parasitemia/number of surviving mice,"Trypanosoma cruzi [3]; 40 d post-treatment, 50 mg/kg/d orally for 20 days",5/5
same,Negative parasitemia/number of surviving mice,"Trypanosoma cruzi [3]; 60 d post-treatment, 50 mg/kg/d orally for 20 days",5/5
same,"eradication of Trypanosoma cruzi from the infected organism, acute phase",Trypanosoma cruzi [4]; 50 mg/kg/d,does not make it possible to obtain
same,number of parasites ± standard deviation,"Trypanosoma cruzi [4]; day 4 post-infection (before treatment), 50 mg/kg oral, two weeks from day 11, n = 8",0
same,number of parasites ± standard deviation,"Trypanosoma cruzi [4]; day 11 post-infection (period of treatment), 50 mg/kg oral, n = 8",0
same,number of parasites ± standard deviation,"Trypanosoma cruzi [4]; day 18 post-infection (period of treatment), 50 mg/kg oral, n = 8",34.9 ± 98.6
same,number of parasites ± standard deviation,"Trypanosoma cruzi [4]; day 25 post-infection (period of treatment), 50 mg/kg oral, n = 8",250.1 ± 503.5
same,number of parasites ± standard deviation,"Trypanosoma cruzi [4]; day 32 post-infection, 50 mg/kg oral, two weeks from day 11, n = 8",296.8 ± 625.5
same,number of parasites ± standard deviation,"Trypanosoma cruzi [4]; day 39 post-infection, 50 mg/kg oral, two weeks from day 11, n = 8",118.3 ± 192.9
same,number of parasites ± standard deviation,"Trypanosoma cruzi [4]; day 45 post-infection, 50 mg/kg oral, two weeks from day 11, n = 8",300.8 ± 431.6
same,number of parasites ± standard deviation,"Trypanosoma cruzi [4]; day 53 post-infection, 50 mg/kg oral, two weeks from day 11, n = 8",23.3 ± 65.8
same,number of parasites ± standard deviation,"Trypanosoma cruzi [4]; day 60 post-infection, 50 mg/kg oral, two weeks from day 11, n = 8",65.3 ± 93.2
same,number of parasites ± standard deviation,"Trypanosoma cruzi [4]; day 68 post-infection, 50 mg/kg oral, two weeks from day 11, n = 8",9.4 ± 26.5
O=c1ccc2nccc3c4ccccc4n1c23 [canthin-6-one],ELISA (optical density ± standard deviation),"Trypanosoma cruzi [1]; 10 d post-treatment, 5 mg/kg orally",1.621 ± 0.547
same,ELISA (optical density ± standard deviation),"Trypanosoma cruzi [1]; 10 d post-treatment, 5 mg/kg/d subcutaneously",1.850 ± 0.405
same,ELISA (optical density ± standard deviation),"Trypanosoma cruzi [1]; 43 days before treatment (baseline), 5 mg/kg orally",1.878 ± 0.348
same,ELISA (optical density ± standard deviation),"Trypanosoma cruzi [1]; 43 days before treatment (baseline), 5 mg/kg/d subcutaneously",1.916 ± 0.368
same,ELISA (optical density ± standard deviation),"Trypanosoma cruzi [1]; 75 d post-treatment, 5 mg/kg orally",1.799 ± 0.333
same,ELISA (optical density ± standard deviation),"Trypanosoma cruzi [1]; 75 d post-treatment, 5 mg/kg/d subcutaneously",1.870 ± 0.268
same,"1st serology (anti-T. cruzi ELISA, optical density)",Trypanosoma cruzi [2]; 5 mg SC,0.2151 ± 0.1447
same,"1st serology (anti-T. cruzi ELISA, optical density)",Trypanosoma cruzi [2]; 5 mg oral,0.1105 ± 0.0387
same,"2nd serology (anti-T. cruzi ELISA, optical density)",Trypanosoma cruzi [2]; 5 mg SC,0.1347 ± 0.6327
same,"2nd serology (anti-T. cruzi ELISA, optical density)",Trypanosoma cruzi [2]; 5 mg oral,0.3953 ± 0.7531
same,Negative parasitemia/number of surviving mice,"Trypanosoma cruzi [3]; 0 days post-treatment, 5 mg/kg orally for 20 days",7/8
same,Negative parasitemia/number of surviving mice,"Trypanosoma cruzi [3]; 0 days post-treatment, 5 mg/kg/d subcutaneously for 20 days",6/8
same,Negative parasitemia/number of surviving mice,"Trypanosoma cruzi [3]; 10 d post-treatment, 5 mg/kg orally for 20 days",7/8
same,Negative parasitemia/number of surviving mice,"Trypanosoma cruzi [3]; 10 d post-treatment, 5 mg/kg/d subcutaneously for 20 days",7/8
same,Negative parasitemia/number of surviving mice,"Trypanosoma cruzi [3]; 40 d post-treatment, 5 mg/kg orally for 20 days",8/8
same,Negative parasitemia/number of surviving mice,"Trypanosoma cruzi [3]; 40 d post-treatment, 5 mg/kg/d subcutaneously for 20 days",6/8
same,Negative parasitemia/number of surviving mice,"Trypanosoma cruzi [3]; 60 d post-treatment, 5 mg/kg orally for 20 days",8/8
same,Negative parasitemia/number of surviving mice,"Trypanosoma cruzi [3]; 60 d post-treatment, 5 mg/kg/d subcutaneously for 20 days",6/8
same,"eradication of Trypanosoma cruzi from the infected organism, chronic phase",Trypanosoma cruzi [3]; orally 5 mg/kg/d for 20 days,complete eradication of Trypanosoma cruzi from the infected organism
same,"protection of the mice against death, chronic phase",Trypanosoma cruzi [3]; orally 5 mg/kg/d for 20 days,protects the mice against death
same,"activity compared with benznidazole (50 mg/kg/d), chronic phase","Trypanosoma cruzi [3]; orally 5 mg/kg/d for 20 days from the 108th day after parasitic infection, 79 days after the end of the treatment",greater activity than benznidazole
same,effective dose against Trypanosoma cruzi relative to benznidazole,"Trypanosoma cruzi [4]; activity assays, general statement",doses ten times lower than the doses at which benznidazole is effective
same,number of parasites ± standard deviation,"Trypanosoma cruzi [4]; day 4 post-infection (before treatment), 5 mg/kg oral, two weeks from day 11, n = 7",0
same,number of parasites ± standard deviation,"Trypanosoma cruzi [4]; day 4 post-infection (before treatment), 5 mg/kg subcutaneous, two weeks from day 11, n = 8",0
same,number of parasites ± standard deviation,"Trypanosoma cruzi [4]; day 11 post-infection (period of treatment), 5 mg/kg oral, n = 7",0
same,number of parasites ± standard deviation,"Trypanosoma cruzi [4]; day 11 post-infection (period of treatment), 5 mg/kg subcutaneous, n = 8",0
same,number of parasites ± standard deviation,"Trypanosoma cruzi [4]; day 18 post-infection (period of treatment), 5 mg/kg oral, n = 7",285 ± 515.9
same,number of parasites ± standard deviation,"Trypanosoma cruzi [4]; day 18 post-infection (period of treatment), 5 mg/kg subcutaneous, n = 8",766.3 ± 719.2
same,number of parasites ± standard deviation,"Trypanosoma cruzi [4]; day 25 post-infection (period of treatment), 5 mg/kg oral, n = 7",402 ± 837.7
same,number of parasites ± standard deviation,"Trypanosoma cruzi [4]; day 25 post-infection (period of treatment), 5 mg/kg subcutaneous, n = 8",88.4 ± 142.9
same,number of parasites ± standard deviation,"Trypanosoma cruzi [4]; day 32 post-infection, 5 mg/kg oral, two weeks from day 11, n = 7",426.2 ± 664.5
same,number of parasites ± standard deviation,"Trypanosoma cruzi [4]; day 32 post-infection, 5 mg/kg subcutaneous, two weeks from day 11, n = 8",267.5 ± 546.5
same,number of parasites ± standard deviation,"Trypanosoma cruzi [4]; day 39 post-infection, 5 mg/kg oral, two weeks from day 11, n = 7",36.6 ± 58.4
same,number of parasites ± standard deviation,"Trypanosoma cruzi [4]; day 39 post-infection, 5 mg/kg subcutaneous, two weeks from day 11, n = 8",2077.1 ± 2214.2
same,number of parasites ± standard deviation,"Trypanosoma cruzi [4]; day 45 post-infection, 5 mg/kg oral, two weeks from day 11, n = 7",34.4 ± 76.9
same,number of parasites ± standard deviation,"Trypanosoma cruzi [4]; day 45 post-infection, 5 mg/kg subcutaneous, two weeks from day 11, n = 8",314.1 ± 499.3
same,number of parasites ± standard deviation,"Trypanosoma cruzi [4]; day 53 post-infection, 5 mg/kg oral, two weeks from day 11, n = 7",58.4 ± 80.6
same,number of parasites ± standard deviation,"Trypanosoma cruzi [4]; day 53 post-infection, 5 mg/kg subcutaneous, two weeks from day 11, n = 8",473.4 ± 921.9
same,number of parasites ± standard deviation,"Trypanosoma cruzi [4]; day 60 post-infection, 5 mg/kg oral, two weeks from day 11, n = 7",16 ± 35.8
same,number of parasites ± standard deviation,"Trypanosoma cruzi [4]; day 60 post-infection, 5 mg/kg subcutaneous, two weeks from day 11, n = 8",129.9 ± 194.4
same,number of parasites ± standard deviation,"Trypanosoma cruzi [4]; day 68 post-infection, 5 mg/kg oral, two weeks from day 11, n = 7",0
same,number of parasites ± standard deviation,"Trypanosoma cruzi [4]; day 68 post-infection, 5 mg/kg subcutaneous, two weeks from day 11, n = 8",34.9 ± 98.6
same,"eradication of Trypanosoma cruzi from the infected organism, acute phase",Trypanosoma cruzi [4]; orally 5 mg/kg/d,complete eradication of Trypanosoma cruzi from the infected organism
same,"activity compared with benznidazole (50 mg/kg/d), acute phase","Trypanosoma cruzi [4]; orally 5 mg/kg/d, from the 39th day after infestation, 15 days after the end of treatment",activity that is much greater than the benznidazole
